Measured values taken from US20210198277A1, “AMINE-SUBSTITUTED ARYL OR HETEROARYL COMPOUNDS” (Epizyme, Inc., priority 2016, published 2021).

molecular target: T1, EHMT1 (Homo sapiens, UniProt Q9H9B1); experiment: EHMT1 enzyme assay on peptide substrate (EHMT1 PEP); assay type: biochemical; conditions: Table II; read-out: EHMT1 PEP (IC50 μM)
T1 sequence (Q9H9B1 1-1298): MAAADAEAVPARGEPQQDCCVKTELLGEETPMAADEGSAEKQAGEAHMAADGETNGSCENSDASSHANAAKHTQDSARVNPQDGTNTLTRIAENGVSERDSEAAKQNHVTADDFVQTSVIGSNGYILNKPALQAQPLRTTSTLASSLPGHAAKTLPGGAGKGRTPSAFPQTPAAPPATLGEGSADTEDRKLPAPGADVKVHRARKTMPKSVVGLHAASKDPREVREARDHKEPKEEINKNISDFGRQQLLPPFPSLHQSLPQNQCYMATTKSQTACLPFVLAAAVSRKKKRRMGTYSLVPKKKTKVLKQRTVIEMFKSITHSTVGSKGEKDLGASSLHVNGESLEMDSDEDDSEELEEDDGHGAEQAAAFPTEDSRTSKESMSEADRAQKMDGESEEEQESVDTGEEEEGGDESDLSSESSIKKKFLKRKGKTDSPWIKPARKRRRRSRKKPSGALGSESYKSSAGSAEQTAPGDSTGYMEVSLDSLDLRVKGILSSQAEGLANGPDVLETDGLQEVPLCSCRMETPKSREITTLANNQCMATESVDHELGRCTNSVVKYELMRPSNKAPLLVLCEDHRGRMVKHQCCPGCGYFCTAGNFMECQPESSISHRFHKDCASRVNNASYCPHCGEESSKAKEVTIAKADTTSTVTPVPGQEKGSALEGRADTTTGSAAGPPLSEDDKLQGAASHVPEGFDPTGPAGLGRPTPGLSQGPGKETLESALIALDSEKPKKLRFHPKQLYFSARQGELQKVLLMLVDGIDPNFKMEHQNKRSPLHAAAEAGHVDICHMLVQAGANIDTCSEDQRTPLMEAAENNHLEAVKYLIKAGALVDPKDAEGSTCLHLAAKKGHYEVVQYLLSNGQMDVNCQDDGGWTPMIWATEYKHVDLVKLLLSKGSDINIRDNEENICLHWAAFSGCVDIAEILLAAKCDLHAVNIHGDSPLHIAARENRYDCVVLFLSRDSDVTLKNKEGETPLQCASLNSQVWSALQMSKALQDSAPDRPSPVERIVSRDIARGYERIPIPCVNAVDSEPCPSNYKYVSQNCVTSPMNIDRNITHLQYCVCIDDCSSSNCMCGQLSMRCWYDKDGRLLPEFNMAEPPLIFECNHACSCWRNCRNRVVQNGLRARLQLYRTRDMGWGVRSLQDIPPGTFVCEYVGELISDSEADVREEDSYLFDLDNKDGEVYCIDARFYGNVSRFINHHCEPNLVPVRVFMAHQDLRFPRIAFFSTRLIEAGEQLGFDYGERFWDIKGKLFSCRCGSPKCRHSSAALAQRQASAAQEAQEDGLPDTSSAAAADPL

Q: How did the IC50 turn out when COc1ccc(Nc2nccc(NCc3ccc(=O)[nH]c3)n2)cc1OCCCN1CCCC1 [Compound 165] was run?
A: 0.1 to 1 µM

Q: Which IC50 does the source give for COc1ccc(Nc2nccc(NCC3CCN(C(C)=O)CC3)n2)cc1OCCC(=O)N1CCCC1 [Compound 166] here?
A: > 10 µM

Q: For COc1ccc(Nc2nccc(NCCc3ccccn3)n2)cc1OCCCN1CCCC1 [Compound 167], which IC50 is on record?
A: 0.1 to 1 µM

Q: Which IC50 does the source give for COc1ccc(Nc2nccc(N3CCN(c4ccccn4)CC3)n2)cc1OCCCN1CCCC1 [Compound 168] here?
A: > 10 µM

Q: Which IC50 does the source give for COc1ccc(Nc2nccc(N3CCS(=O)(=O)CC3)n2)cc1OCCCN1CCCC1 [Compound 169] here?
A: > 10 µM

Q: COc1ccc(Nc2nccc(N3CC(C(=O)N(C)C)C3)n2)cc1OCCCN1CCCC1 [Compound 170] was tested. Which IC50 did it give?
A: > 10 µM

Q: COc1ccc(Nc2nccc(N(C)C)n2)cc1OCCCN1CCCC1 [Compound 171] was tested. Which IC50 did it give?
A: 1 to 10 µM

Q: How did the IC50 turn out when COc1ccc(Nc2nccc(N(C)CC3CCN(C(C)=O)CC3)n2)cc1OCCCN1CCCC1 [Compound 172] was run?
A: 1 to 10 µM

Q: For COc1ccc(Nc2cc(OCC3CCN(C(C)=O)CC3)ccn2)cc1OCCCN1CCCC1 [Compound 173], which IC50 is on record?
A: 1 to 10 µM

Q: For COc1ccc(Nc2nccc(C)n2)cc1OCCCN1CCCC1 [Compound 174], which IC50 is on record?
A: > 10 µM

Q: How did the IC50 turn out when COc1ccc(Nc2nc(C)cc(C)n2)cc1OCCCN1CCCC1 [Compound 175] was run?
A: > 10 µM

Q: With CNc1cccc(Nc2ccc(OC)c(OCCCN3CCCC3)c2)n1 [Compound 176] as the compound, how does the IC50 read?
A: > 10 µM

Q: Which IC50 does the source give for COCCN(C)c1ccnc(Nc2ccc(OC)c(OCCCN3CCCC3)c2)n1 [Compound 177] here?
A: > 10 µM

Q: Which IC50 does the source give for COc1ccc(Nc2nccc(NCCC3CCOCC3)n2)cc1OCCCN1CCCC1 [Compound 178] here?
A: 0.1 to 1 µM

Q: For COc1ccc(Nc2nccc(N3CC(C(N)=O)C3)n2)cc1OCCCN1CCCC1 [Compound 179], which IC50 is on record?
A: > 10 µM

Q: With COc1ccc(Nc2nccc(-n3cc(C)cn3)n2)cc1OCCCN1CCCC1 [Compound 180] as the compound, how does the IC50 read?
A: > 10 µM

Q: With COc1ccc(Nc2ncc(CO)cn2)cc1OCCCN1CCCC1 [Compound 181] as the compound, how does the IC50 read?
A: > 10 µM

Q: COc1cnc(Nc2cc(NCC3CCN(C(C)=O)CC3)ccn2)cc1OCCCN1CCCC1 [Compound 182] was tested. Which IC50 did it give?
A: 0.1 to 1 µM

Q: With COc1ccc(Nc2nccc(NCC3CCN(C(C)=O)CC3)n2)cc1OCC(C)CN1CCCC1 (stereo not shown) [Compound 183] as the compound, how does the IC50 read?
A: 1 to 10 µM

Q: COc1ccc(Nc2cncc(NCC3CCN(C(C)=O)CC3)c2)cc1OCCCN1CCCC1 [Compound 184] was tested. Which IC50 did it give?
A: > 10 µM

Q: With COc1ccc(Nc2cc(NCC3CCN(C(C)=O)CC3)cnn2)cc1OCCCN1CCCC1 [Compound 185] as the compound, how does the IC50 read?
A: 1 to 10 µM

Q: How did the IC50 turn out when CNc1cc(C)nc(Nc2ccc(OC)c(OCCCN3CC[C@@H](F)C3)c2)n1 [Compound 186] was run?
A: 0.1 to 1 µM

Q: How did the IC50 turn out when CNc1nc(Nc2ccc(OC)c(OCCCN3CCCC3)c2)ncc1F [Compound 187] was run?
A: 1 to 10 µM

Q: CNc1cc(Nc2ccc(OC)c(OCCCN3CCCC3)c2)cnn1 [Compound 188] was tested. Which IC50 did it give?
A: 0.1 to 1 µM

Q: COc1ccc(Nc2nccc(NCc3ccc4nccn4c3)n2)cc1OCCCN1CCCC1 [Compound 191] was tested. Which IC50 did it give?
A: < 0.1 µM

Q: For COc1ccc(Nc2nccc(NC3CN(C(C)=O)C3)n2)cc1OCCCN1CCCC1 [Compound 192], which IC50 is on record?
A: 0.1 to 1 µM

Q: Which IC50 does the source give for COc1ccc(Nc2nccc(NCCn3cccn3)n2)cc1OCCCN1CCCC1 [Compound 193] here?
A: 0.1 to 1 µM

Q: How did the IC50 turn out when COc1ccc(Nc2nccc(NCC3CCN(C(C)=O)CC3)n2)cc1OC(C)CCN1CCCC1 (stereo not shown) [Compound 195] was run?
A: 1 to 10 µM

Q: Which IC50 does the source give for COc1ccc(Nc2nccc(NCC3CCN(S(C)(=O)=O)CC3)n2)cc1OCCCN1CCCC1 [Compound 199] here?
A: 0.1 to 1 µM

Q: With CCOC(=O)N1CCC(CNc2ccnc(Nc3ccc(OC)c(OCCCN4CCCC4)c3)n2)CC1 [Compound 203] as the compound, how does the IC50 read?
A: 0.1 to 1 µM

Q: Which IC50 does the source give for COc1ccc(Nc2nccc(NCC3CCOCC3)n2)cc1OCCN1CCOCC1 [Compound 204] here?
A: 1 to 10 µM
